Experiments:
MCF7 cells [1] = assay: cellular proliferation, continuous confluence monitoring via Juli FL; type: cell-based, human; conditions: for Final confluence: MCF7, 48 hrs
Experimental: (§1) We also tested the ability of compound 2 to suppress proliferation of cancer cells by an alternative approach via the real time monitoring with a cellular analyser Juli FL. In brief, MCF7 or MDA-MB-231 cells were seeded in a 6-well plate the day before to reach approximately 20% confluence on the following day. Next day, the camera of the instrument was focused on a particular field with approximately 20% confluence and cells were continuously monitored, recording the confluence and visual appearance every 30 minutes for 48 hrs. Values were then expressed either as simple confluence at the end of the experiment or as slope of the line representing the confluence during a given period of time (Table 10). It is clear from the collected data that, in agreement with Xcelligence data, we do see inhibition of proliferation at 1 μM, complete block of proliferation at 2 μM and a cytotoxic effect at 5 μM. The effect is less pronounced in this case as dead cells remain in the monitored field and some are still counted as living cells by the software.

MDA-MB-231 cells = assay: as above; type: cell-based, human; conditions: for Final confluence: MDA-MB-231, 48 hrs
Experimental: as §1

BxPC-3 cells = assay: crystal violet assay, cellular viability; type: cell-based; conditions: Homo sapiens, BxPC-3, 48 hours
[2] = tested on: tamoxifen-resistant BT474 (Tam5R); assay: crystal violet assay, tamoxifen resistant cells; type: cell-based; conditions: Homo sapiens, BT-474, grown in 5 μM tamoxifen
Experimental: (§2) Compound 1 and compound 2 were tested in their efficacy to kill malignant MCF7 cancer cells. Briefly, 10.000 cells per well were seeded in a 96-well plat on one day and the next day selected compounds were added and incubated with the cells for 48 hrs. The cells were then fixed with 4% paraformaldehyde, stained with 0.05% crystal violet, washed with PBS, and solubilized in 1% SDS. The absorbance of the plate at 595 nm was then measured, quantifying the number of viable cells.
(§3) To test whether compound 2 is active against resistant cancer cells, we used tamoxifen-resistant MCF7, T47D and BT474 cell lines. The IC50 values were again measured with the crystal violet assay performed as in example 18. We have documented that there is no statistically significant difference in the ability of compound 2 to induce cytostatic and cytotoxic effects between the parental cells sensitive to tamoxifen and the resistant ones that grow even in the presence of tamoxifen (Table 4).

[3] = tested on: tamoxifen-resistant MCF7 (Tam5R); assay: crystal violet assay, tamoxifen resistant cells; type: cell-based; conditions: Homo sapiens, grown in 5 μM tamoxifen
Experimental: as §2, §3

[4] = tested on: tamoxifen-resistant T47D (Tam5R); assay: crystal violet assay, tamoxifen resistant cells; type: cell-based; conditions: Homo sapiens, grown in 5 μM tamoxifen
Experimental: as §2, §3

MCF7 cells [5] = assay: individual cell movement, Juli FL and Image J; type: cell-based, human
Experimental: Additionally, cells seeded identically as in example 26, were treated with 1 to 5 μM concentrations of compound 2 and movie was recorded via the Juli FL system, enabling monitoring of individual movement of cells. The movement was then analyzed by the Image J program to gain the average travelled distance within a specified time. We detected a significant reduction of the total length of travelled trajectory when cells were exposed to compound 2 (Table 12)

[6] = tested on: human triple negative breast cancer cells line MDA-MB-231; assay: tumor growth in vivo, MDA-MB-231 model; parameters: species or system NOD-SCID gamma mice; conditions: for Relative tumor size: MDA-MB-231, 8 mg/kg i.p. twice per week
Experimental: In order to define the effect of compound 2 on tumor growth and progression in vivo, we tested its effect on the model of human triple negative breast cancer cells line MDA-MB-231, NOD-SCID gamma mice being the immunodeficient host. Mice were injected with 1 million of cells s.c. on the right flank. After appearance of tumors (15-60 mm^3) mice were randomized into three separate group, one receiving corn oil (control) and two compound 2 in a dose of 1 mg/kg or 8 mg/kg. Tumor progression was then monitored by ultrasound imaging Vevo770 and mice received the treatment twice per week, i.p. in approximately 100 ul of corn oil.

[7] = tested on: human mammary gland cancer cell line MDA-MB-231; assay: dose-effect relationship of drugs and mixtures, crystal violet assay, Median-Effect / Combination index; type: cell-based; conditions: MDA-MB-231, crystal violet, 48 hours
Experimental: (§4) The potentiation of cytotoxic effect of compound 2 in combination with several cytostatics was evaluated. The dose-effect relationship of individual drugs and mixtures of compound 2 with paclitaxel, cis Pt (cis-platin), doxorubicin and fluorouracil was determined on human mammary gland cancer cell line MDA-MB-231 and pancreatic cell line BxPC3 by means of crystal violet assay. The linearized Median-Effect Plot of dose response line provided both parameters (IC50; trend line m(slope) value) of Median-Effect Equation for individual and combination treatment [ref: Theoretical basis, experimental design, and computerized simulation of synergism and antagonism in drug combination studies; Ting-Chao Chou: Pharmacol Rev. 58(3), 2006, 621-81; Erratum in Pharmacol Rev. 2007; 59(1), 124]:
(§5) Potentiation of combination effect of compound 2 was expressed for concentrations IC50, IC75, IC90, IC95 by calculation of Combination index (CI) applying Combination Index Theorem for mutually exclusive drugs. Overall CI was expressed by means of weighted average of IC50, IC75, IC90, IC95 [ref: Quantitative analysis of dose-effect relationships: the combined effects of multiple drugs or enzyme inhibitors; Ting-Chao Chou, Paul Talalay: Advances in Enzyme Regulation, Volume 22, 1984, Pages 27-55]: […]

[8] = tested on: pancreatic cell line BxPC3; assay: as above; type: cell-based
Experimental: as §4, §5

CC(=O)N(O)CCCCCNC(=O)CCC(=O)N(O)CCCCCNC(=O)CCC(=O)N(O)CCCCCN(CCCCCCCCCC[P+](c1ccccc1)(c1ccccc1)c1ccccc1)CCCCCCCCCC[P+](c1ccccc1)(c1ccccc1)c1ccccc1.[Cl-].[Cl-] [Compound 2, Triphenyl(3,14,25-trihydroxy-2,10,13,21,24-pentaoxo-31-(10-(triphenylphosphonio)decyl)-3,9,14,20,25,31-hexaazahentetracontan-41-yl)phosphonium chloride]
slope of the confluence line (MCF7 cells [1]; MCF7, 0-22 h, 1 μM): 0.655 (0.022)
slope of the confluence line (MCF7 cells [1]; MCF7, 0-22 h, 2 μM): 0.324 (0.016)
slope of the confluence line (MCF7 cells [1]; MCF7, 0-22 h, 5 μM): 0.317 (0.030)
slope of the confluence line (MCF7 cells [1]; MCF7, 22-48 h, 1 μM): 0.510 (0.014)
slope of the confluence line (MCF7 cells [1]; MCF7, 22-48 h, 2 μM): 0.104 (0.007)
slope of the confluence line (MCF7 cells [1]; MCF7, 22-48 h, 5 μM): −0.076 (0.010)
Final confluence (MCF7 cells [1]; 1 μM): 53.15 (4.0)
Final confluence (MCF7 cells [1]; 2 μM): 32.94 (2.5)
Final confluence (MCF7 cells [1]; 5 μM): 26.54 (1.9)
slope of the confluence line (MDA-MB-231 cells; MDA-MB-231, 0-22 h, 1 μM): 0.786 (0.010)
slope of the confluence line (MDA-MB-231 cells; MDA-MB-231, 0-22 h, 2 μM): 0.470 (0.006)
slope of the confluence line (MDA-MB-231 cells; MDA-MB-231, 0-22 h, 5 μM): 0.454 (0.014)
slope of the confluence line (MDA-MB-231 cells; MDA-MB-231, 22-48 h, 1 μM): 0.934 (0.014)
slope of the confluence line (MDA-MB-231 cells; MDA-MB-231, 22-48 h, 2 μM): 0.114 (0.011)
slope of the confluence line (MDA-MB-231 cells; MDA-MB-231, 22-48 h, 5 μM): −0.057 (0.013)
Final confluence (MDA-MB-231 cells; 1 μM): 65.15 (3.3)
Final confluence (MDA-MB-231 cells; 2 μM): 46.58 (2.7)
Final confluence (MDA-MB-231 cells; 5 μM): 25.87 (2.4)
IC50 (BxPC-3 cells): 1.7 µM
IC50 [2]: 4.2 µM
IC50 [3]: 2.1 µM
IC50 [4]: 1.2 µM
speed of the movement (MCF7 cells [5]; MCF7, 1 μM): 0.16 (0.06) μm*min^−1
travelled distance of an individual cell between frames (MCF7 cells [5]; MCF7, 1 μM): 4.4 (1.4) μm
speed of the movement (MCF7 cells [5]; MCF7, 2 μM): 0.13 (0.05) μm*min^−1
travelled distance of an individual cell between frames (MCF7 cells [5]; MCF7, 2 μM): 3.9 (1.5) μm
speed of the movement (MCF7 cells [5]; MCF7, 5 μM): 0.12 (0.07) μm*min^−1
travelled distance of an individual cell between frames (MCF7 cells [5]; MCF7, 5 μM): 3.1 (0.7) μm
effect on relative tumor growth, in words ([6]; MDA-MB-231, 8 mg/kg): significantly reduces relative tumor growth
Relative tumor size ([6]; Day 0): 1.0
Relative tumor size ([6]; Day 4): 1.3
Relative tumor size ([6]; Day 7): 1.8
Relative tumor size ([6]; Day 11): 2.6
Relative tumor size ([6]; Day 14): 3.5
Relative tumor size ([6]; Day 18): 5.3
Relative tumor size ([6]; Day 21): 7.9
IC50 ([7]; Homo sapiens, Chou-Talalay method, read-out: Median-Effect Plot parameter IC50): 5.89 µM
Median-Effect Plot parameter m (slope) [7]: 1.2778
Median-Effect Plot parameter m (slope) ([8]; 48 hours): 1.57
IC50 ([8]; Homo sapiens, BXPC-3, 48 h, read-out: Median-Effect Plot parameter IC50): 4.5 µM

Source: patent US20200078379A1, “DEFEROXAMINE DERIVATIVES AS MEDICAMENTS” (BIOTECHNOLOGICKY USTAV AV CR, V.V.I., priority 2017, published 2020)
